Source: US8604009B2, “(20S)-2-methylene-19-nor-22-dimethyl-1α,25-dihydroxyvitamin D3 and (20R)-2-methylene-19-nor-22-dimethyl-1α,25-hydroxyvitamin D3” (Wisconsin Alumni Research Foundation, priority 2010, dated 2013)
Entries after “also recorded” stand apart in the source; their conditions may differ. Read-outs that look alike come from different tables or passages of the source.

How the values were obtained:
[1] = target: T1, full-length recombinant rat vitamin D receptor (Rattus norvegicus, UniProt P13053); conditions: data from U.S. Pat. No. 5,843,928 and J. Med. Chem. 1998, 41, 4662; read-out: Competitive VDR Binding (Ki); cited from earlier work
T1 construct: Full-length recombinant rat receptor was expressed in E. coli BL21(DE3) Codon Plus RIL cells; histidine tag (C); made in house; host or cells: E. coli BL21(DE3) Codon Plus RIL
T1 sequence (P13053 1-423): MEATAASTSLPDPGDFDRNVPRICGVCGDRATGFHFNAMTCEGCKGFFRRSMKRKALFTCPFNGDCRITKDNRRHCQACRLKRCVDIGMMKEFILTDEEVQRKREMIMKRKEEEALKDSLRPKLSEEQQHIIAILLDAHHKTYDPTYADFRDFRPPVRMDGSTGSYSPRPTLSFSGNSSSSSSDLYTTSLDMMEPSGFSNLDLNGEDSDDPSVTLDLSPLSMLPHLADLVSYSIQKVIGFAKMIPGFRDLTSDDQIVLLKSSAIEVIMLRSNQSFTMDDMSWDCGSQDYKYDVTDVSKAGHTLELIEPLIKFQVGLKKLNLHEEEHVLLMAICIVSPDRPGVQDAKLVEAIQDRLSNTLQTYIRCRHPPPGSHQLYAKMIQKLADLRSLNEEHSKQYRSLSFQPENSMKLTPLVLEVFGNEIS

HL-60 cells = assay: HL-60 differentiation (nitro blue tetrazolium reduction); type: cell-based, human
Experimental: The study drugs were dissolved in ethanol and the concentrations determined using UV spectrophotometry. Serial dilutions were prepared so that a range of drug concentrations could be tested without changing the final concentration of ethanol (≦0.2%) present in the cell cultures.
Human promyelocytic leukemia (HL60) cells were grown in RPMI-1640 medium containing 10% fetal bovine serum. The cells were incubated at 37° C. in the presence of 5% CO2.
HL60 cells were plated at 1.2×10^5 cells/mL. Eighteen hours after plating, cells in duplicate were treated with drug. Four days later, the cells were harvested and a nitro blue tetrazolium reduction assay was performed (Collins et al., J. Exp. Med. (1979) 149:969-974). The percentage of differentiated cells was determined by counting a total of 200 cells and recording the number that contained intracellular black-blue formazan deposits.

[2] = target: T1, full-length recombinant rat vitamin D receptor; assay: Competitive vitamin D receptor binding; conditions: for binding to the nuclear vitamin D receptor compared with 1,25(OH)2D3: in words
Experimental: The first system was a nickel affinity resin that utilizes the C-terminal histidine tag on this protein. The protein that was eluted from this resin was further purified using ion exchange chromatography (S-Sepharose Fast Flow). Aliquots of the purified protein were quick frozen in liquid nitrogen and stored at −80° C. until use. For use in binding assays, the protein was diluted in TEDK50 (50 mM Tris, 1.5 mM EDTA, pH 7.4, 5 mM DTT, 150 mM KCl) with 0.1% Chaps detergent. The receptor protein and ligand concentration was optimized such that no more than 20% of the added radiolabeled ligand was bound to the receptor.
Radiolabeled and unlabeled ligands were added to 100 μL of the diluted protein at a final ethanol concentration of ≦10%, mixed and incubated overnight on ice to reach binding equilibrium. The following day, 100 μL of hydroxylapatite slurry (50%) was added to each tube and mixed at 10-minute intervals for 30 minutes. The hydroxylapaptite was collected by centrifugation and then washed three times with Tris-EDTA buffer (50 mM Tris, 1.5 mM EDTA, pH 7.4) containing 0.5% Titron X-100. After the final wash, the pellets were transferred to scintillation vials containing 4 mL of Biosafe II scintillation cocktail, mixed and placed in a scintillation counter. Total binding was determined from the tubes containing only radiolabeled ligand.

[3] = tested on: 24-hydroxylase (24-OHase) gene promoter in ROS 17/2.8 (bone) cells; assay: In vitro transcription assay (24-hydroxylase promoter luciferase reporter); type: cell-based
Experimental: Transcription activity was measured in ROS 17/2.8 (bone) cells that were stably transfected with a 24-hydroxylase (24-Ohase) gene promoter upstream of a luciferase reporter gene (Arbour et al., Analytical Biochem. (1998) 255(1):148-154). Cells were given a range of doses. Sixteen hours after dosing the cells were harvested and luciferase activities were measured using a luminometer. RLU=relative luciferase units.

[4] = tested on: intestinal calcium transport; assay: Intestinal calcium transport (everted gut sac); type: in vivo, rat; conditions: for Net Intestinal Ca2+ Transport (S/M): S/M = serosal Ca2+/mucosal Ca2+, at 780 pM dosage; for intestinal calcium transport activity compared with 1,25(OH)2D3: rat gut, in words
Experimental: (§1) Male, weanling Sprague-Dawley rats were placed on Diet 11 (0.47% Ca) diet+AEK oil for one week followed by Diet 11 (0.02% Ca)+AEK oil for 3 weeks. The rats were then switched to a diet containing 0.47% Ca for one week followed by two weeks on a diet containing 0.02% Ca. Dose administration began during the last week on 0.02% calcium diet. Four consecutive intraperitoneal doses were given approximately 24 hours apart. Twenty-four hours after the last dose, blood was collected from the severed neck and the concentration of serum calcium determined as a measure of bone calcium mobilization. The first 10 cm of the intestine was also collected for intestinal calcium transport analysis using the everted gut sac method.

[5] = tested on: bone calcium mobilization; assay: Bone calcium mobilization (serum calcium); type: in vivo, rat; conditions: at 780 pM dosage
Experimental: as §1

[6] = competition with 3H-1,25(OH)2D3, read-out: Ki, binding to the recombinant vitamin D receptor

Ki [2, 6] | Compound | Ki [1] | binding to the nuclear vitamin D receptor compared with 1,25(OH)2D3 [2] | Net Intestinal Ca2+ Transport (S/M) [4] | intestinal calcium transport activity compared with 1,25(OH)2D3 [4] | Net Bone Ca2+ Mobilization [5] | other results
– | C=C1C(O)CC(=CC=C2CCCC3(C)C2CCC3C(C)CCCC(C)(C)O)CC1O [2MD (20R)] | 0.12 nM | – | – | – | – | –
– | C=C1C(O)CC(=CC=C2CCCC3(C)C2CCC3C(C)CCCC(C)(C)O)CC1O [2MD (20S), 2-methylene-19-nor-1α,25-dihydroxyvitamin D3] | 0.1 nM | – | – | – | – | –
0.04 nM | C=C1C(O)CC(=CC=C2CCCC3(C)C2CCC3C(C)C(C)(C)CCC(C)(C)O)CC1O [MET-1, (20S)-2-methylene-19-nor-22-dimethyl-1α,25-dihydroxyvitamin D3] | – | approximately equally effective as 1,25-(OH)2D3; also recorded: same affinity as 1,25(OH)2D3 | 2.3 S/M | noticeably less active than 1,25-(OH)2D3; also recorded: less potent than 1,25(OH)2D3 | 0.4 mg/dL | EC50 (HL-60 cells; Homo sapiens, HL-60, 96 h, HL-60 cells, 4 days, read-out: concentration inducing the differentiation of HL-60 cells in culture): 0.7 nM; EC50 (HL-60 cells; present compounds, read-out: HL-60 Differentiation (EC50)): 0.7 nM; EC50 ([3]; 16 h, ROS 17/2.8 cells, 16 hours, read-out: concentration stimulating 24-OHase gene expression in bone cells): 0.03 nM
0.05 nM | C=C1C(O)CC(=CC=C2CCCC3(C)C2CCC3C(C)C(C)(C)CCC(C)(C)O)CC1O [MET-2, (20R)-2-methylene-19-nor-22-dimethyl-1α,25-dihydroxyvitamin D3] | – | equally effective as 1,25-(OH)2D3; also recorded: same affinity as 1,25(OH)2D3 | 1.2 S/M | noticeably less active than 1,25-(OH)2D3; also recorded: less potent than 1,25(OH)2D3 | 0.2 mg/dL | EC50 (HL-60 cells; HL-60 cells, 4 days, read-out: concentration inducing the differentiation of HL-60 cells in culture): 0.7 nM; EC50 (HL-60 cells; Homo sapiens, HL-60, present compounds, read-out: HL-60 Differentiation (EC50)): 1 nM; Ki ([2]; present compounds, read-out: Competitive VDR Binding (Ki)): 0.05 nM; EC50 ([3]; ROS 17/2.8 cells, 16 hours, read-out: concentration stimulating 24-OHase gene expression in bone cells): 0.03 nM; EC50 ([3]; present compounds, read-out: 24-OHase Transcription (EC50)): 0.6 nM; potency in 24-hydroxylase gene transcription, times more potent than 1,25(OH)2D3 ([3]; relative to 1,25(OH)2D3): about three; potency in stimulating 24-OHase gene expression, times less potent than 1,25(OH)2D3 ([3]; relative to 1,25(OH)2D3): about 3 times; melting point: 154 °C
